From patent publication US20230113944A1, “COMPOSITIONS AND METHODS FOR THE TREATMENT OF NEURODEGENERATIVE DISEASES” (priority 2020, published 2023)
“Also recorded” adds a separate entry of the source. Like-named read-outs stand apart in the source and are kept apart here.

How the values were obtained:
[1] = target: T1, human nSMase2 (Homo sapiens, UniProt Q9NY59); experiment: biochemical; assay type: biochemical
T1 construct: expressed in transfected cells; host or cells: HEK293T
T1 sequence (Q9NY59 1-655): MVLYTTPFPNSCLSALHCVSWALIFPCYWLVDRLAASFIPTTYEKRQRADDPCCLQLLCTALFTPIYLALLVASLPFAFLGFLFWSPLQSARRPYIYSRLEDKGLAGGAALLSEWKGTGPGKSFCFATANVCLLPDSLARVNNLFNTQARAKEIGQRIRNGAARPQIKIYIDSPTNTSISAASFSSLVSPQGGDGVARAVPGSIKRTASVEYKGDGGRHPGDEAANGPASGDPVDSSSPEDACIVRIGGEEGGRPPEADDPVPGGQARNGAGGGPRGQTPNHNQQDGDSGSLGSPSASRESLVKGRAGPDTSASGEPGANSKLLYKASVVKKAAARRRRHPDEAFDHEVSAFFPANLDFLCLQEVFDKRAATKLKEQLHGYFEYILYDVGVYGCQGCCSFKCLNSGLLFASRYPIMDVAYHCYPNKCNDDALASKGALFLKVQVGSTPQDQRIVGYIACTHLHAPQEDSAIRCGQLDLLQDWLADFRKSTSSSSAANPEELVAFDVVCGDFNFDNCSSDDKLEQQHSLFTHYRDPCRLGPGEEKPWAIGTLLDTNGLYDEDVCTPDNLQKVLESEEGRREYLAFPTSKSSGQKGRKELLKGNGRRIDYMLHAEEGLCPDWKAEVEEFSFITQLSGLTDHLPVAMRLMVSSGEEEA
Method: To evaluate nSMase2 inhibitory activity of tested compounds, cell lysates from HEK293T cells over-expressing human nSMase2 were used as the source of the nSMase2 enzyme. The Amplex Red Sphingomyelinase activity assay was performed according to previously a described protocol^1. Confluent cells were washed with PBS and harvested with lysis buffer [100 mM Tris-HCl pH 7.5, 100 mM sucrose, 100 μM PMSF, 1× protease inhibitor cocktail] using a cell scraper, and then sonicated 3 times on ice for 10 sec and centrifuged at 10,000×g for 10 min at 4° C. to remove remaining cell debris. An initial screening of a compound library was performed using 50 μM compound concentrations. In secondary testing, selected compounds were analyzed at multiple compound concentrations and plotted as a percentage of DMSO control; dose-response curves were generated to determine IC50s using GraphPad Prism software (GraphPad Software, La Jolla Calif.). […] Activity of the enzyme in the presence of the different concentrations of the inhibitors was plotted against substrate concentration and the maximal rate of the enzymatic reaction (Vmax) and Michaelis constant were calculated using GraphPad Prism.

[2] = Parallel artificial membrane permeability (IAM column) prediction of CNS permeability; assay type: in vitro ADME
Method: To predict the potential for brain permeability, a Regis Technologies analytical column connected to an Agilent HPLC system (Infinity 1260 quaternary pump and multiple wavelength detector; 1200 autosampler) was used. An IAM.PC.DD column was (4.6 mm i.d.×10 cm, particle size 5 μm; pore size 300 Å) conditioned with 20 column volumes of mobile phase or until a stable line was achieved. A mobile phase with a consistent flow rate of 1 mL/min was used comprising 100 mM Na2PO4 (solvent A) and acetonitrile (solvent B); compounds were eluted using a gradient (min/% B: 0/30, 10/60, 11/30, 15/30). Detector settings were 220, 250 and 280 nm and acquisition time was 15 min. The autosampler injected 10 μL of compound at 2 mM final, diluted from 10 mM in DMSO in 70:30 (water:acetonitrile). After elution, compound retention and void volume times were obtained from the chromatogram. The IAM capacity factor: (KIAM) was calculated using the equation: […]
where tr is the retention time of a compound and t0 is the void volume time of the column. To predict CNS permeability, we used the correlation described by the formula below.

[3] = target: T2, Human AChE (Homo sapiens, UniProt P22303); experiment: biochemical
T2 construct: purchased Sigma
T2 sequence (P22303 32-614): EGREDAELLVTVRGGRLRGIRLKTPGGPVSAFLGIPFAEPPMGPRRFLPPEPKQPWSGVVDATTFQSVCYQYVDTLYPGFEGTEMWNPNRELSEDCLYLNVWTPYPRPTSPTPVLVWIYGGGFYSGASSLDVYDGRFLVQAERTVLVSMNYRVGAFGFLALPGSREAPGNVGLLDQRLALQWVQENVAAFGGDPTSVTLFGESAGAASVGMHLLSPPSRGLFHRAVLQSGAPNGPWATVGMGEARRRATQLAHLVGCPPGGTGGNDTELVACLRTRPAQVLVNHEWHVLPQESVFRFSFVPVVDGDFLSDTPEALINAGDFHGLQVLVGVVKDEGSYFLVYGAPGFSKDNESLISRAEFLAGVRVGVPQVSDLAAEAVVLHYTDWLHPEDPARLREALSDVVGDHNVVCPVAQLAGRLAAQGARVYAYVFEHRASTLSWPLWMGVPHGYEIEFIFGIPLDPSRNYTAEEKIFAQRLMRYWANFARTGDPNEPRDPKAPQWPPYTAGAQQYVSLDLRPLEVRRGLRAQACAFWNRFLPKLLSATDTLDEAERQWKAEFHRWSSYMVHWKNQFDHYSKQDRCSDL
Method: This acetylcholinesterase (AChE) assay is based on an Amplex Red assay kit (Thermo Fisher A12217). Human AChE (Sigma) was used. Briefly, 5 μL of compounds at the desired concentration were loaded into wells of a 384-well plate. Then, 5 μl of human AChE (30 mU/mL) was loaded into each well, followed by the addition of 10 μL of the working solution which contains 400 μM Amplex Red reagent, 2 U/mL HRP, 0.2 U/mL choline oxidase, and 100 μM acetylcholine. The reaction was monitored for 60 minutes and read at 530/590 nm. AChE IC50 was determined by plotting AChE activity as a percentage of DMSO control using GraphPad Prism software.

[4] = target: human serum albumin (HSA) (Homo sapiens, UniProt P02768); experiment: Binding to human serum albumin (HSA); conditions: for fraction unbound: human, human serum albumin
Chain of human serum albumin (HSA) (P02768 25-609): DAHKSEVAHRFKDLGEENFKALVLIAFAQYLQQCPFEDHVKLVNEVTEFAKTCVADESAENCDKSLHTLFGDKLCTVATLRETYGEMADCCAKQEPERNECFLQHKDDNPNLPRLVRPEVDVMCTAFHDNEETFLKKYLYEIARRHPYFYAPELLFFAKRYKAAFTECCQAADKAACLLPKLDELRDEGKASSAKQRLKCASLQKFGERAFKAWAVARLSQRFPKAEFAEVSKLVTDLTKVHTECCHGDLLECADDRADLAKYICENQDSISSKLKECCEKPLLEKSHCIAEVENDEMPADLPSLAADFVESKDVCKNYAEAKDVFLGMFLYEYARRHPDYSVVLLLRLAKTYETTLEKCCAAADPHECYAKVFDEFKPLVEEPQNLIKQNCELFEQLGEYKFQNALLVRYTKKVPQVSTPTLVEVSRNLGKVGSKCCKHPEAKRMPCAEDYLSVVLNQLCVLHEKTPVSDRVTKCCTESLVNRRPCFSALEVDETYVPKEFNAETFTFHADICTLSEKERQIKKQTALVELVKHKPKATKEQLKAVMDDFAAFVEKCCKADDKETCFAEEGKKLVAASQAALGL

[5] = system: HEK293T Tau RD P301S FRET biosensor (tau biosensor) cells; experiment: EV-mediated tau seed transfer (EMT) assay; assay type: cell-based; conditions: preliminary experiments, data not shown
Method: HEK293T Tau RD P301S FRET biosensor (tau biosensor) cells were grown in Dulbecco's Modified Eagle's medium (DMEM) with high glucose, 10% FBS, and 1% Penicillin-streptomycin at 37° C./5% CO2. The lead inhibitors were tested in functional tau propagation “D+R” (Donors plus Recipients) and EMT (EV-mediated transfer) assays using the tau biosensors. Briefly, tau aggregation in donor cells (D) was induced by transfection of tau biosensor cells with human AD brain derived synaptosomal extracts (35 μg of synaptosomal fraction for 5 million cells in one 10 cm dish); control cells were treated with corresponding amount of transfection reagent lipofectamine 2000. After 24 hr incubation, the cells were trypsinized and plated together with DID-labeled recipient cells (R) in a 1:1 ratio in 96-well plates (15,000 of each cell type per well) for D+R assay or 1.5 million of donor cells per well in 6-well plates for EMT assay. Tested compounds or a corresponding amount of DMSO (0.2%) was added to the cell culture medium, DMEM, which contained 10% of exosome-depleted FBS (ThermoFisher, A2720803). Four technical replicates were used for each experimental condition. The inhibitors were tested at 20 μM concentration. In 48 hours 50 μL of culture medium per well were collected for cell viability test (Cytotox 96 non-radioactive cytotoxicity assay, Promega Corp., Madison, Wis.). The cells in D+R assay were harvested at the 48 hr time point and fixed with 2% paraformaldehyde for flow cytometry analysis according to published protocol. Tau seed transfer from donor to recipient cells results in FRET signal generation in the DID-positive recipient cells, which was measured by flow cytometry. Integrated FRET density was calculated in the top 30% of DID-positive cell based on DID signal intensity.
For the EMT assay, cell culture medium from donor cells growing for 48 hours with the compounds at concentrations of 20 μM or a corresponding amount of DMSO (0.2%), was collected and EVs were purified using the ExoQuick-TC kit (SBI biosciences) according to the manufacturer's instructions. Naïve recipient cells were plated in 96 well plates at a density of 20,000 cells per well in exosome-free medium and transfected with donor cell-derived exosomes at 12 hrs. The recipient cells were harvested 60 hours after transfection and FRET signals were analyzed using flow cytometry.
An Attune NxT Flow Cytometer (Invitrogen) equipped with an autosampler and FRET-compatible laser lines and filter sets was used for FRET signal detection. […] Flow cytometry data was analyzed using FCS Express version 5 software (DeNovo Software California, USA). Integrated FRET density was calculated as a product of percentage FRET positive cells and median of fluorescent intensity of the FRET positive cells as previously established.

Row | Compound | IC50 ([1]; IC50 nSMase2) [nM] | CNS perm (PAMPA) [2] | fraction unbound [4] | IC50 ([3]; IC50 AChE) [nM] | other results
1 | CN1c2ccc(OC(=O)Nc3ccccc3)cc2[C@]2(C)CCO[C@H]12 [Compound 1, phensvenine] | > 1000 | 3.2 | 0.12 | – | nSMase2 inhibitory activity [1]: has nSMase2 inhibitory activity; also recorded: weak nSMase2 inhibition; IC50 ([3]; AChE IC50): 500 nM
2 | COc1ccc(NC(=O)Oc2ccc3c(c2)[C@]2(C)CCO[C@@H]2N3C)cc1 [Compound 2] | 700 | 2 | 0.15 | 3600 | –
3 | COc1cccc(NC(=O)Oc2ccc3c(c2)[C@]2(C)CCO[C@@H]2N3C)c1 [Compound 3] | – | 2.3 | 0.1 | 100 | –
4 | CN1c2ccc(OC(=O)Nc3ccc(OC(F)(F)F)cc3)cc2[C@]2(C)CCO[C@H]12 [Compound 4] | 2700 | 0.7 | 0.33 | > 5000 | –
5 | CN1c2ccc(OC(=O)NC3CCCCC3)cc2[C@]2(C)CCO[C@H]12 [Compound 5] | 3400 | 2.8 | 0.17 | 300 | –
6 | Cc1cc(C)cc(NC(=O)Oc2ccc3c(c2)[C@]2(C)CCO[C@@H]2N3C)c1 [Compound 6] | 3600 | 3.1 | 0.04 | 200 | –
7 | COc1cc(NC(=O)Oc2ccc3c(c2)[C@]2(C)CCO[C@@H]2N3C)cc(OC)c1 [Compound 7] | 2000 | 1.8 | 0.09 | 300 | –
8 | CC[C@H]1C[C@@]2(C)c3cc(OC(=O)Nc4ccccc4)ccc3N(C)[C@H]2O1 [Compound 9] | > 5000 | 3 | 0.07 | 2500 | –
9 | CC[C@@H]1C[C@@]2(C)c3cc(OC(=O)Nc4ccccc4)ccc3N(C)[C@H]2O1 [Compound 10] | – | 3.2 | 0.05 | 3700 | –
10 | CN1c2ccc(OC(=O)Nc3ccccn3)cc2[C@]2(C)CCO[C@H]12 [Compound 12] | 800 | 1.9 | 0.28 | > 5000 | degree of binding to human serum albumin (HSA) [4]: low degree of binding
11 | CN1c2ccc(OC(=O)Nc3ccncc3F)cc2[C@]2(C)CCO[C@H]12 [Compound 13] | 600 | – | 0.35 | > 5000 | CNS perm (PAMPA) ([2]; PAMPA, 2 mM): 1.3; degree of binding to human serum albumin (HSA) [4]: low degree of binding
12 | CN1c2ccc(OC(=O)Nc3cncc(F)c3)cc2[C@]2(C)CCO[C@H]12 [Compound 14] | 900 | 2 | 0.21 | > 5000 | –
13 | CN1c2ccc(OC(=O)Nc3ccc(C(F)(F)F)cc3)cc2[C@]2(C)CCO[C@H]12 [Compound 15] | – | – | 0.07 | > 5000 | CNS perm (PAMPA) ([2]; PAMPA, 2 mM): 2.2
14 | CC[C@@H]1C[C@@]2(C)c3cc(OC(=O)Nc4ccccc4)ccc3N(C)[C@H]2O1 [drawing 43] | – | – | – | – | IC50 ([1]; IC50 (nSMase2) Groups: A-D): 1000 to 10000 nM; IC50 ([3]; AChE activity): 2500 to 5000 nM
15 | CN1c2ccc(OC(=O)Nc3ccccn3)cc2[C@]2(C)CCO[C@H]12 [drawing 45] | – | – | – | – | IC50 ([1]; IC50 (nSMase2) Groups: A-D): < 1000 nM; IC50 ([3]; AChE activity): > 5000 nM
16 | CN1c2ccc(OC(=O)Nc3ccncc3F)cc2[C@]2(C)CCO[C@H]12 [drawing 62] | – | – | – | – | IC50 ([1]; IC50 (nSMase2) Groups: A-D): < 1000 nM; IC50 ([3]; AChE activity): > 5000 nM
17 | CN1c2ccc(OC(=O)Nc3cncc(F)c3)cc2[C@]2(C)CCO[C@H]12 [drawing 63] | – | – | – | – | IC50 ([1]; IC50 (nSMase2) Groups: A-D): < 1000 nM; IC50 ([3]; AChE activity): > 5000 nM
18 | CN1c2ccc(OC(=O)Nc3ccc(C(F)(F)F)cc3)cc2[C@]2(C)CCO[C@H]12 [drawing 64] | – | – | – | – | IC50 ([1]; IC50 (nSMase2) Groups: A-D): 1000 to 10000 nM; IC50 ([3]; AChE activity): > 5000 nM
19 | CCN(C)C(=O)Oc1cccc([C@H](C)N(C)C)c1 [rivastigmine, reference compound] | – | – | – | – | EV-mediated transfer from donor to recipient cells [5]: may partially suppress
